Measured values taken from patent publication US10632324B2, “Method for the treatment of skin tissues” (9127-4910 Quebec Inc., priority 2017, dated 2020).
Where “and” joins values, the source holds several entries; their conditions need not be identical. Equal entries are not always repeated.

What was measured:
Format in all cases: in vivo, human
[1] = tested on: conversion of 5-ALA to protoporphyrin IX (PpIX); assay: Fluoderm fluorescence after 940 nm photopreparation and 5-ALA, one subject (Example 11)
Description: In order to measure the effect of photopreparation on the skin we used an LED device (Lumiphase 940 nm, CW and Pulsed, irradiance: 70 mW/cm2, OpusMed, Montreal, Canada) prior to the application of a photosensitizer (5-ALA: Levulan, Kerastick, DUSA Pharmaceuticals, USA). We tested both CW and sequential pulsing modes 24 h and 30/15 minutes (total fluence 63 J/cm^2 before the application of 5-ALA for 3 hours). Following an incubation time of 3 hours, we measured the fluorescence induced by the conversion of 5-ALA to protoporphyrin IX (PpIX) with a dedicated device (Fluoderm, Dia-Medico ApS, Danemark). The pulsed radiation, referred to as D50 hereinbelow, consisted in pulse trains of 4 pulses with pulses lasting 500 μs separated with an inter-pulse interval within each train of 150 μs. The pulse trains were separated from each other by 1550 μs. Higher numbers mean higher conversion to PpIX, and thus indicate that the PDT treatment will be more efficient. All parameters were tested on adjacent portion of the subject's skin. The experiment was performed on the back of a person with phototype I.

[2] = tested on: conversion of 5-ALA to PpIX; assay: FluoDerm fluorescence after 940 nm irradiation 8-53 h before 5-ALA, two subjects (Example 11); parameters: unit not given here
Description: In view of these promising results, another study with even longer delays before application of 5-ALA was performed. The back skin of two test subjects was irradiated with continuous wavelength and pulsed infrared light at 940 nm. These irradiations took place 50-53, 24-29, and 8-14 hours prior to the application of the 5-ALA. After a three-hour incubation period with the compound, a FluoDerm™ device was used to measure the fluorescence of the skin ([…]) a direct indication of the activity of 5-ALA. 5-ALA must penetrate the skin and then be converted to PpIX before any fluorescence increase can be observed. […] Conclusion: This preconditioning method uses a temperature-independent mechanism of action via cell signaling pathways as in photobiomodulation.

[3] = tested on: transformation of 5-aminolevulinic acid to protoporphyrin IX (PpIX); assay: FluoDerm fluorescence after 940 nm photopreparation 24, 48, 72 h before 5-ALA, 4 subjects (Example 12)
Description: To obtain greater statistical power and investigate even longer term effects, the above study was repeated on other subjects. Below, the results or comparison between the D50 and CW protocols are shown for 4 subjects. Irradiation was performed in accordance with the pattern of FIG. 44, with measurements taken 24, 48 and 72 hours after pre-treatment with D50 and CW, instead of 8-14, 24-29 and 50-53.
More specifically, delineated treatment areas were drawn on each subject's back. These spaces had to be close enough together to enable simultaneous irradiation downstream in the experiment. Areas of each patient's back were then irradiated according to the predetermined photopreparation treatment parameter at the appropriate pre-5-ALA application and activation time. In this study, two light pulsing options were compared—pulsed versus continuous. Both options were set at 940 nm. The time set between the photopreparation treatment and the 5-ALA application was the other variable tested. […] Following the appropriately timed photopreparation treatment of the correct back skin area, 20% 5-aminolevulinic acid (Levulan Kerastick, Dusa, Wilmington, USA) was applied to the patient's back. After the topical application, an incubation time of 3 hours was set to optimize the transformation of the medication to protoporphyrin IX (PpIX). Finally, using the Fluoroderm device, the fluorescence of each subject's back areas was measured. The recorded data was statistically analyzed.
Besides the 20% 5-aminolevulinic acid (Levulan Kerastick, Dusa, Wilmington, USA) used as the photosensitizer and the FluoDerm (Dia-Medico, Denmark) to quantify the fluorescence of each patient's back, a prototype able to irradiate the back skin areas with pulsed (D50 pulsing condition) and continuous wavelength (CW) light at 940 nm was built. This machine was assembled at RoseLab Skin Optics Research Laboratory (Montreal, Canada). The D50-940 nm condition was made up of 940 nm light with a pulsing pattern consisting of a 50% duty cycle delivered in the repeating pattern (in μseconds where PD, PI, and PTI mean pulse duration, pulse interval, and pulse train interval, respectively) of: PD 500 on, PI 150 off, PD 500 on, PI 150 off, PD 500 on and PTI 1550 off (FIG. 3). The irradiance delivered for all conditions (D50 and CW) was 75 mW/cm^2 and the fluence delivered for all conditions was 67.5 J/cm^2 (940 nm LED treatment duration D50=30 min and CW=15 min).
The FluoDerm measured each tested condition. These measurements were then compared to the control (only 5-ALA without photopreparation). The means of these proportional changes were calculated. The final results were categorized by every photopreparation condition (72, 48 and 24 hours pre-treatment). A 95% confidence interval was calculated for each mean.
The data is analyzed and presented as X-fold changes (or differences) as compared to the just 5-ALA control below. Higher number show a higher effect of pre-treatment with IR radiation.

SMILES: NCC(=O)CCC(=O)O [5-ALA, 5-aminolevulinic acid]
- Fold increase of fluorescence compared to 5-ALA alone ([1]; PP 15 min pre-5-ALA: CW - 15 min): 1.09 fold and 1.03 fold
- Fluoderm Measurements, Post 3 hour incubation (5-ALA) ([1]; PP 15 min pre-5-ALA: CW - 15 min, 940 nm, 70 mW/cm2): 51
- Fold increase of fluorescence compared to 5-ALA alone ([1]; PP 30 min pre-5-ALA: D50 - 30 min): 1.19 fold
- Fluoderm Measurements, Post 3 hour incubation (5-ALA) ([1]; PP 30 min pre-5-ALA: D50 - 30 min, 940 nm, 70 mW/cm2): 59
- Fold increase of fluorescence compared to 5-ALA alone ([1]; PP 24 h pre-5-ALA: CW - 15 min): 1.13 fold
- Fluoderm Measurements, Post 3 hour incubation (5-ALA) ([1]; PP 24 h pre-5-ALA: CW - 15 min, 940 nm, 70 mW/cm2): 56
- Fold increase of fluorescence compared to 5-ALA alone ([1]; PP 24 h pre-5-ALA: D50 - 30 min): 1.45 fold
- Fluoderm Measurements, Post 3 hour incubation (5-ALA) ([1]; PP 24 h pre-5-ALA: D50 - 30 min, 940 nm, 70 mW/cm2): 72
- Fold increase of fluorescence compared to 5-ALA alone ([1]; Positive control: 5-ALA alone): 1 fold
- Fluoderm Measurements, Post 3 hour incubation (5-ALA) ([1]; Positive control: 5-ALA alone, no photopreparation): 49.5
- Fluoderm Reading ([2]; subject one, 14 hour time points, CW-940, 3 h incubation): 51.0
- Fluoderm Reading ([2]; subject one, 14 hour time points, D50-940, 3 h incubation): 44.5
- Fluoderm Reading ([2]; subject one, 24 hour time points, CW-940, 3 h incubation): 48.0
- Fluoderm Reading ([2]; subject one, 24 hour time points, D50-940, 3 h incubation): 36.5
- Fluoderm Reading ([2]; subject one, 50 hour time points, CW-940, 3 h incubation): 45.0
- Fluoderm Reading ([2]; subject one, 50 hour time points, D50-940, 3 h incubation): 35.0
- Fluoderm Reading ([2]; subject one, Control, Just 5-ALA, no irradiation): 37.0
- Fluoderm Reading ([2]; subject two, 8 hour time points, CW-940, 3 h incubation): 44.0
- Fluoderm Reading ([2]; subject two, 8 hour time points, D50-940, 3 h incubation): 49.0
- Fluoderm Reading ([2]; subject two, 8 hour time points, S50-940, 3 h incubation): 51.0
- Fluoderm Reading ([2]; subject two, 29 hour time points, CW-940, 3 h incubation): 47.0
- Fluoderm Reading ([2]; subject two, 29 hour time points, D50-940, 3 h incubation): 52.0
- Fluoderm Reading ([2]; subject two, 29 hour time points, S50-940, 3 h incubation): 47.5
- Fluoderm Reading ([2]; subject two, 53 hour time points, CW-940, 3 h incubation): 55.0
- Fluoderm Reading ([2]; subject two, 53 hour time points, D50-940, 3 h incubation): 46.5
- Fluoderm Reading ([2]; subject two, 53 hour time points, S50-940, 3 h incubation): 55.0
- Fluoderm Reading ([2]; subject two, Control, Just 5-ALA, no irradiation): 46.0
- X-fold change of fluorescence as compared to the just 5-ALA control, Mean ([3]; 24 hours pre-treatment, CW-940, 75 mW/cm2, 67.5 J/cm2): 1.18 fold
- X-fold change of fluorescence as compared to the just 5-ALA control, Mean ([3]; 24 hours pre-treatment, D50-940, 75 mW/cm2, 67.5 J/cm2): 1.27 fold
- X-fold change of fluorescence as compared to the just 5-ALA control, Mean ([3]; 48 hours pre-treatment, CW-940, 75 mW/cm2, 67.5 J/cm2): 1.34 fold
- X-fold change of fluorescence as compared to the just 5-ALA control, Mean ([3]; 48 hours pre-treatment, D50-940, 75 mW/cm2, 67.5 J/cm2): 1.08 fold
- X-fold change of fluorescence as compared to the just 5-ALA control, Mean ([3]; 72 hours pre-treatment, CW-940, 75 mW/cm2, 67.5 J/cm2): 1.05 fold
- X-fold change of fluorescence as compared to the just 5-ALA control, Mean ([3]; 72 hours pre-treatment, D50-940, 75 mW/cm2, 67.5 J/cm2): 0.94 fold
